Data reported in patent US8748415B2 (priority 2011, dated 2014).

System: recombinant NL4-3 virus (Renilla luciferase in nef, Gag P373S)
Assay: HIV cell culture assay (luciferase activity in MT-2 cells infected with NLRluc recombinant virus)
Format: cell-based
Details: NL43, MT-2 cells infected 4-5 days with NLRluc recombinant virus
Description: HIV cell culture assay—MT-2 cells and 293T cells were obtained from the NIH AIDS Research and Reference Reagent Program. MT-2 cells were propagated in RPMI 1640 media supplemented with 10% heat inactivated fetal bovine serum, […]. The 293T cells were propagated in DMEM media supplemented with 10% heat inactivated fetal bovine serum (FBS), 100 units/ml penicillin G and 100 μg/ml streptomycin. The proviral DNA clone of NL4-3 was obtained from the NIH AIDS Research and Reference Reagent Program. A recombinant NL4-3 virus, in which a section of the nef gene from NL4-3 was replaced with the Renilla luciferase gene, was used as a reference virus. In addition, residue Gag P373 was converted to P373S. Briefly, the recombinant virus was prepared by transfection of the altered proviral clone of NL4-3. Transfections were performed in 293T cells using LipofectAMINE PLUS from Invitrogen (Carlsbad, Calif.), according to manufacturer's instruction. The virus was titered in MT-2 cells using luciferase enzyme activity as a marker. Luciferase was quantitated using the Dual Luciferase kit from Promega (Madison, Wis.), with modifications to the manufacturer's protocol. The diluted Passive Lysis solution was pre-mixed with the re-suspended Luciferase Assay Reagent and the re-suspended Stop & Glo Substrate (2:1:1 ratio). Fifty (50) μL of the mixture was added to each aspirated well on assay plates and luciferase activity was measured immediately on a Wallac TriLux (Perkin-Elmer). Antiviral activities of inhibitors toward the recombinant virus were quantified by measuring luciferase activity in cells infected for 4-5 days with NLRluc recombinants in the presence serial dilutions of the inhibitor. Table 1 is the key for the data in Table 2.

SMILES | EC50 (class symbol) [nM] | EC50 (numeric value) [nM]
C=C(C)[C@@H]1CC[C@]2(CN(CCCN3CCS(=O)(=O)CC3)C(=O)CCC(=O)O)CC[C@]3(C)[C@H](CC[C@@H]4[C@@]5(C)CC=C(c6ccc(C(=O)O)cc6)C(C)(C)[C@@H]5CC[C@]43C)[C@@H]12 [Example 16, 4-((1R,3aS,5aR,5bR,7aR,11aS,11bR,13aR,13bR)-5a,5b,8,8,11a-pentamethyl-1-(prop-1-en-2-yl)-3a-((3-(1-dioxo-thiomorpholino)propylamino)methyl)-2,3,3a,4,5,5a,5b,6,7,7a,8,11,11a,11b,12,13,13a,13b-octadecahydro-1H-cyclopenta[a]chrysen-9-yl)benzoic acid] | < 100 | 
C=C(C)[C@@H]1CC[C@]2(CN(CCCN3CCS(=O)(=O)CC3)C(C)=O)CC[C@]3(C)[C@H](CC[C@@H]4[C@@]5(C)CC=C(c6ccc(C(=O)O)cc6)C(C)(C)[C@@H]5CC[C@]43C)[C@@H]12 [Example 17, 4-((1R,3aS,5aR,5bR,7aR,11aS,11bR,13aR,13bR)-5a,5b,8,8,11a-pentamethyl-1-(prop-1-en-2-yl)-3a-((3-(1-dioxo-thiomorpholino)propylamino)methyl)-2,3,3a,4,5,5a,5b,6,7,7a,8,11,11a,11b,12,13,13a,13b-octadecahydro-1H-cyclopenta[a]chrysen-9-yl)benzoic acid] | < 100 | 
C=C(C)[C@@H]1CC[C@]2(CNCCCN(C)c3ccccc3)CC[C@]3(C)[C@H](CC[C@@H]4[C@@]5(C)CC=C(c6ccc(C(=O)O)cc6)C(C)(C)[C@@H]5CC[C@]43C)[C@@H]12 [Example 18, 4-((1R,3aS,5aR,5bR,7aR,11aS,11bR,13aR,13bR)-5a,5b,8,8,11a-pentamethyl-3a-((3-(methyl(phenyl)amino)propylamino)methyl)-1-(prop-1-en-2-yl)-2,3,3a,4,5,5a,5b,6,7,7a,8,11,11a,11b,12,13,13a,13b-octadecahydro-1H-cyclopenta[a]chrysen-9-yl)benzoic acid] | < 100 | 
C=C(C)[C@@H]1CC[C@]2(CNCCCNC)CC[C@]3(C)[C@H](CC[C@@H]4[C@@]5(C)CC=C(c6ccc(C(=O)O)cc6)C(C)(C)[C@@H]5CC[C@]43C)[C@@H]12 [Example 19, 4-((1R,3aS,5aR,5bR,7aR,11aS,11bR,13aR,13bR)-5a,5b,8,8,11a-pentamethyl-3a-((3-(methylamino)propylamino)methyl)-1-(prop-1-en-2-yl)-2,3,3a,4,5,5a,5b,6,7,7a,8,11,11a,11b,12,13,13a,13b-octadecahydro-1H-cyclopenta[a]chrysen-9-yl)benzoic acid] | < 100 | 
C=C(C)[C@@H]1CC[C@]2(CNCCn3ccnc3)CC[C@]3(C)[C@H](CC[C@@H]4[C@@]5(C)CC=C(c6ccc(C(=O)O)cc6)C(C)(C)[C@@H]5CC[C@]43C)[C@@H]12 [Example 20, 4-((1R,3aS,5aR,5bR,7aR,11aS,11bR,13aR,13bR)-3a-((2-(1H-imidazol-1-yl)ethylamino)methyl)-5a,5b,8,8,11a-pentamethyl-1-(prop-1-en-2-yl)-2,3,3a,4,5,5a,5b,6,7,7a,8,11,11a,11b,12,13,13a,13b-octadecahydro-1H-cyclopenta[a]chrysen-9-yl)benzoic acid] | < 100 | 
C=C(C)[C@@H]1CC[C@]2(CNCCN(CC)CC)CC[C@]3(C)[C@H](CC[C@@H]4[C@@]5(C)CC=C(c6ccc(C(=O)O)cc6)C(C)(C)[C@@H]5CC[C@]43C)[C@@H]12 [Example 21, 4-((1R,3aS,5aR,5bR,7aR,11aS,11bR,13aR,13bR)-3a-((2-(diethylamino)ethylamino)methyl)-5a,5b,8,8,11a-pentamethyl-1-(prop-1-en-2-yl)-2,3,3a,4,5,5a,5b,6,7,7a,8,11,11a,11b,12,13,13a,13b-octadecahydro-1H-cyclopenta[a]chrysen-9-yl)benzoic acid] | < 100 | 
C=C(C)[C@@H]1CC[C@]2(CNCCCn3ccnc3C)CC[C@]3(C)[C@H](CC[C@@H]4[C@@]5(C)CC=C(c6ccc(C(=O)O)cc6)C(C)(C)[C@@H]5CC[C@]43C)[C@@H]12 [Example 22] | < 100 | 
C=C(C)[C@@H]1CC[C@]2(CNCCCN3CCNC(=O)C3)CC[C@]3(C)[C@H](CC[C@@H]4[C@@]5(C)CC=C(c6ccc(C(=O)O)cc6)C(C)(C)[C@@H]5CC[C@]43C)[C@@H]12 [Example 23, 4-((1R,3aS,5aR,5bR,7aR,11aS,11bR,13aR,13bR)-5a,5b,8,8,11a-pentamethyl-3a-((3-(3-oxopiperazin-1-yl)propylamino)methyl)-1-(prop-1-en-2-yl)-2,3,3a,4,5,5a,5b,6,7,7a,8,11,11a,11b,12,13,13a,13b-octadecahydro-1H-cyclopenta[a]chrysen-9-yl)benzoic acid] | < 100 | 
C=C(C)[C@@H]1CC[C@]2(CNCCN(CCO)CCO)CC[C@]3(C)[C@H](CC[C@@H]4[C@@]5(C)CC=C(c6ccc(C(=O)O)cc6)C(C)(C)[C@@H]5CC[C@]43C)[C@@H]12 [Example 24, 4-((1R,3aS,5aR,5bR,7aR,11aS,11bR,13aR,13bR)-3a-((2-(bis(2-hydroxyethyl)amino)ethylamino)methyl)-5a,5b,8,8,11a-pentamethyl-1-(prop-1-en-2-yl)-2,3,3a,4,5,5a,5b,6,7,7a,8,11,11a,11b,12,13,13a,13b-octadecahydro-1H-cyclopenta[a]chrysen-9-yl)benzoic acid] | < 100 | 
C=C(C)[C@@H]1CC[C@]2(CNCCc3c[nH]cn3)CC[C@]3(C)[C@H](CC[C@@H]4[C@@]5(C)CC=C(c6ccc(C(=O)O)cc6)C(C)(C)[C@@H]5CC[C@]43C)[C@@H]12 [Example 25, 4-((1R,3aS,5aR,5bR,7aR,11aS,11bR,13aR,13bR)-3a-((2-(1H-imidazol-4-yl)ethylamino)methyl)-5a,5b,8,8,11a-pentamethyl-1-(prop-1-en-2-yl)-2,3,3a,4,5,5a,5b,6,7,7a,8,11,11a,11b,12,13,13a,13b-octadecahydro-1H-cyclopenta[a]chrysen-9-yl)benzoic acid] | < 100 | 
C=C(C)[C@@H]1CC[C@]2(CNCCN(C)CCO)CC[C@]3(C)[C@H](CC[C@@H]4[C@@]5(C)CC=C(c6ccc(C(=O)O)cc6)C(C)(C)[C@@H]5CC[C@]43C)[C@@H]12 [Example 26, 4-((1R,3aS,5aR,5bR,7aR,11aS,11bR,13aR,13bR)-3a-((2-((2-hydroxyethyl)(methyl)amino)ethylamino)methyl)-5a,5b,8,8,11a-pentamethyl-1-(prop-1-en-2-yl)-2,3,3a,4,5,5a,5b,6,7,7a,8,11,11a,11b,12,13,13a,13b-octadecahydro-1H-cyclopenta[a]chrysen-9-yl)benzoic acid] | < 100 | 
C=C(C)[C@@H]1CC[C@]2(CNCCCC(=O)OC(C)(C)C)CC[C@]3(C)[C@H](CC[C@@H]4[C@@]5(C)CC=C(c6ccc(C(=O)O)cc6)C(C)(C)[C@@H]5CC[C@]43C)[C@@H]12 [Example 27, 4-((1R,3aS,5aR,5bR,7aR,11aS,11bR,13aR,13bR)-3a-((4-tert-butoxy-4-oxobutylamino)methyl)-5a,5b,8,8,11a-pentamethyl-1-(prop-1-en-2-yl)-2,3,3a,4,5,5a,5b,6,7,7a,8,11,11a,11b,12,13,13a,13b-octadecahydro-1H-cyclopenta[a]chrysen-9-yl)benzoic acid] | < 100 | 
C=C(C)[C@@H]1CC[C@]2(CNCCCC(=O)O)CC[C@]3(C)[C@H](CC[C@@H]4[C@@]5(C)CC=C(c6ccc(C(=O)O)cc6)C(C)(C)[C@@H]5CC[C@]43C)[C@@H]12 [Example 28, 4-((1R,3aS,5aR,5bR,7aR,11aS,11bR,13aR,13bR)-3a-((3-carboxypropylamino)methyl)-5a,5b,8,8,11a-pentamethyl-1-(prop-1-en-2-yl)-2,3,3a,4,5,5a,5b,6,7,7a,8,11,11a,11b,12,13,13a,13b-octadecahydro-1H-cyclopenta[a]chrysen-9-yl)benzoic acid] |  | 2
C=C(C)[C@@H]1CC[C@]2(CN3CCCC3=O)CC[C@]3(C)[C@H](CC[C@@H]4[C@@]5(C)CC=C(c6ccc(C(=O)O)cc6)C(C)(C)[C@@H]5CC[C@]43C)[C@@H]12 [Example 29] |  | 1000
C=C(C)[C@@H]1CC[C@]2(CNCC(=O)OC)CC[C@]3(C)[C@H](CC[C@@H]4[C@@]5(C)CC=C(c6ccc(C(=O)O)cc6)C(C)(C)[C@@H]5CC[C@]43C)[C@@H]12 [Example 30, 4-((1R,3aS,5aR,5bR,7aR,11aS,11bR,13aR,13bR)-3a-((2-methoxy-2-oxoethylamino)methyl)-5a,5b,8,8,11a-pentamethyl-1-(prop-1-en-2-yl)-2,3,3a,4,5,5a,5b,6,7,7a,8,11,11a,11b,12,13,13a,13b-octadecahydro-1H-cyclopenta[a]chrysen-9-yl)benzoic acid] | < 100 | 
